# From patent publication US20240270748A1 (Merck Patent GmbH, priority 2021, published 2024)
# How the values were obtained:
# [1] = system: SW620 Yap KO cells; test: Viability assay in SW620 Yap KO (Yap independent) cells, CyQuant; format: cell-based
# Method in brief: (§1)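 Seeded cells were dosed 24 h later in duplicate (10-point, 1:3 dilutions, top 30 μM final, 0.3% DMSO) and incubated 96 h at 37 °C. Viability was read with CyQUANT DNA dye after 1 h, fluorescence bottom read. NCI-H226 in RPMI 1640 medium; SW620 YAP/TAZ CRISPR knockout in DMEM/F-12 medium.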
# [2] = system: YAP-TEAD interaction; test: SK-HEP-1 reporter assay (8xTEAD responsive elements driving NanoLuc luciferase); format: cell-based
# Method in brief: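 SK-HEP-1 cells stably carrying 8×TEAD-driven NanoLuc treated in duplicate, 10-point dose from 30 μM final, 0.3% DMSO, 24 h at 37° C. Luminescence after NanoGlo lysis/substrate addition; IC50 calculated from dose response.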
# [3] = system: NCI-H226 cells; test: Viability assay in NCI-H226 (Yap-dependent) cells, CyQuant; format: cell-based, human
# Method in brief: as §1
# [4] = Homo sapiens, SW-620, 96 h, n.d. = value not detectable below threshold given in parentheses
# [5] = Homo sapiens, SK-HEP1, SK-HEP-1 reporter assay, class symbols
# [6] = Homo sapiens, NCI-H226, 96 h, class symbols
# [7] = Homo sapiens, SW-620, 96 h, n.d. = value not detectable below threshold given in parentheses, ND = not determinable within the entire range
# [8] = Homo sapiens, SK-HEP1, SK-HEP-1 reporter assay, n.d. = value not detectable below threshold given in parentheses
# [9] = Homo sapiens, SW-620, 96 h, class symbols
# [10] = SK-HEP-1 reporter assay, class symbols
SMILES,"IC50 [1, 4]","IC50 [2, 5]","IC50 [3, 6]","IC50 [1, 7]",other results
"Cn1nc2c3cc(C(=O)N=[S@@](C)(=O)CCO)ccc3n(-c3ccc(C(F)(F)F)cc3)c2n1 (single isomer, unassigned) [Example C191]",> 30 µM,0.01 to 0.1 µM,0.001 to 0.1 µM,–,–
"Cc1snc2c1c1cc(C(=O)NCc3ccccn3)ccc1n2-c1ccc(C(F)(F)F)cc1 [Example C42, 3-methyl-N-[(pyridin-2-yl)methyl]-8-[4-(trifluoromethyl)phenyl]-8H-[1,2]thiazolo[3,4-b]indole-5-carboxamide]",–,0.01 to 0.1 µM,0.001 to 0.1 µM,> 30 µM,–
"Cn1nc2c3cc(C(=O)NC(CCO)c4ccccn4)ccc3n(-c3ccc(C(F)(F)F)cc3)c2n1 (stereo not drawn) [Example C226, N-[3-hydroxy-1-(pyridin-2-yl)propyl]-2-methyl-4-[4-(trifluoromethyl)phenyl]-2H,4H-[1,2,3]triazolo[4,5-b]indole-7-carboxamide]",> 3 µM,0.01 to 0.1 µM,0.001 to 0.1 µM,–,–
"CON(C)C(=O)c1ccc2c(c1)c1cn(C)nc1n2-c1ccc(C(F)(F)F)cc1 [Example C156, N-methoxy-N,2-dimethyl-8-[4-(trifluoromethyl)phenyl]-2H,8H-pyrazolo[3,4-b]indole-5-carboxamide]",–,0.01 to 0.1 µM,0.001 to 0.1 µM,> 30 µM,–
"Cc1snc2c1c1cc(C(=O)N[C@H](c3ccccc3)[C@H](C)O)ccc1n2-c1ccc(C(F)(F)F)cc1 [Example C81, N-[(1R,2S)-2-hydroxy-1-phenylpropyl]-3-methyl-8-[4-(trifluoromethyl)phenyl]-8H-[1,2]thiazolo[3,4-b]indole-5-carboxamide]",–,0.01 to 0.1 µM,0.001 to 0.1 µM,> 3.2 µM,–
"Cn1cc2c3cc(C(=O)N=[S@](=O)(CCCO)Cc4ccncc4)ccc3n(-c3ccc(C(F)(F)F)cc3)c2n1 (single isomer, unassigned) [Example C236]",> 3 µM,–,0.001 to 0.1 µM,–,"IC50 [2, 8]: > 0.095 µM"
"Cn1cc2c3cc(C(=O)N=[S@@](=O)(CCCO)Cc4ccncc4)ccc3n(-c3ccc(C(F)(F)F)cc3)c2n1 (single isomer, unassigned) [Example C231]",> 3 µM,–,0.1 to 1 µM,–,"IC50 [2, 8]: > 0.3 µM"
"Cn1cc2c3cc(C(=O)NC(CO)c4ccccn4)ccc3n(-c3ccc(C(F)(F)F)nc3)c2n1 (single isomer, unassigned) [Example C123]",–,0.1 to 10 µM,–,> 30 µM,"IC50 ([3]; 96 h, class symbols): 0.1 to 1 µM"
"Cn1nc2c3cc(C(=O)NC[C@H](O)C(F)(F)F)ccc3n(-c3ccc(C(F)(F)F)cc3)c2n1 [Example C159, 2-methyl-N-[(2S)-3,3,3-trifluoro-2-hydroxypropyl]-4-[4-(trifluoromethyl)phenyl]-2H,4H-[1,2,3]triazolo[4,5-b]indole-7-carboxamide]",–,0.01 to 0.1 µM,0.001 to 0.1 µM,> 3 µM,–
"Cn1nc2c3cc(C(=O)N=S4(=O)CCNCC4)ccc3n(-c3ccc(C(F)(F)F)cc3)c2n1 [Example C261, 2-methyl-N-(1-oxo-1lambda6-thiomorpholin-1-ylidene)-4-[4-(trifluoromethyl)phenyl]-2H,4H-[1,2,3]triazolo[4,5-b]indole-7-carboxamide]",> 30 µM,0.01 to 0.1 µM,0.001 to 0.1 µM,–,–
"Cn1cc2c3cc(C(=O)N[C@@H](CCO)c4ccccn4)ccc3n(-c3ccc(C(F)(F)F)cc3)c2n1 (single isomer, unassigned) [Example C240]",> 3 µM,0.01 to 0.1 µM,0.001 to 0.1 µM,–,–
Cc1snc2c1c1cc(C(=O)NCCn3ccnc3)ccc1n2-c1ccc(C(F)(F)F)cc1 [Example C121],–,0.01 to 0.1 µM,0.001 to 0.1 µM,> 30 µM,–
"Cn1cc2c3cc(NC(=O)c4ccncc4)ccc3n(-c3ccc(C(F)(F)F)cc3)c2n1 [Example C21, N-{2-methyl-8-[4-(trifluoromethyl)-phenyl]-2H,8H-pyrazolo[3,4-b]indol-5-yl}pyridine-4-carboxamide]",–,–,0.1 to 1 µM,> 3 µM,"IC50 ([2]; Homo sapiens, SK-HEP1, SK-HEP-1 reporter assay, n.d. = value not detectable below threshold given in parentheses, ND = not determinable within the entire range): > 1 µM"
"Cn1cc2c3cc(C(=O)N=[S@@](=O)(CCO)Cc4ccccn4)ccc3n(-c3ccc(C(F)(F)F)cc3)c2n1 (single isomer, unassigned) [Example C177]",> 3 µM,–,0.1 to 1 µM,–,"IC50 [2, 8]: > 6.5 µM"
"Cn1nc2c3cc(C(=O)N=[S@](=O)(CCCO)Cc4ccncc4)ccc3n(-c3ccc(C(F)(F)F)cc3)c2n1 (single isomer, unassigned) [Example C252]",–,–,0.1 to 1 µM,–,"IC50 [1, 9]: 1 to 10 µM; IC50 [2, 8]: > 0.3 µM"
"C[C@H](CO)NC(=O)c1ccc2c(c1)c1cn(C)nc1n2-c1ccc(C(F)(F)F)c(F)c1 [Example C167, 8-[3-fluoro-4-(trifluoromethyl)phenyl]-N-[(2R)-1-hydroxypropan-2-yl]-2-methyl-2H,8H-pyrazolo[3,4-b]indole-5-carboxamide]",> 30 µM,0.01 to 0.1 µM,0.001 to 0.1 µM,–,–
"CC(NC(=O)c1ccc2c(c1)c1cn(C)nc1n2-c1ccc(C(F)(F)F)cc1)c1ccn[nH]1 (single isomer, unassigned) [Example C75]",–,–,0.001 to 0.1 µM,–,"IC50 ([1]; 96 h, n.d. = value not detectable below threshold given in parentheses, ND = not determinable within the entire range): > 30 µM; IC50 [2, 10]: 0.01 to 0.1 µM"
"Cn1cc2c3cc(C(=O)NCc4ccccc4)ccc3n(-c3ccc(C(F)(F)F)cc3)c2n1 [Example C56, N-benzyl-2-methyl-8-[4-(trifluoromethyl)phenyl]-2H,8H-pyrazolo[3,4-b]indole-5-carboxamide]",–,0.01 to 0.1 µM,0.001 to 0.1 µM,> 30 µM,–
"[2H]C1([2H])C(n2c3ccc(C(=O)O)cc3c3cn(C)nc32)C([2H])([2H])C([2H])([2H])C([2H])([2H])C1([2H])[2H] [Example C193, 8-[(2,2,3,3,4,4,5,5,6,6-^2H10)cyclohexyl]-2-methyl-2H,8H-pyrazolo[3,4-b]indole-5-carboxylic acid]",> 30 µM,0.1 to 10 µM,–,–,"IC50 ([3]; Homo sapiens, NCI-H226, 96 h, n.d. = value not detectable below threshold given in parentheses): > 30 µM"
"C[C@H](NC(=O)c1ccc2c(c1)c1nn(C)nc1n2-c1ccc(C(F)(F)F)cc1)c1ccccn1 [Example C184, 2-methyl-N-[(1S)-1-(pyridin-2-yl)ethyl]-4-[4-(trifluoromethyl)phenyl]-2H,4H-[1,2,3]triazolo[4,5-b]indole-7-carboxamide]",> 30 µM,0.01 to 0.1 µM,0.001 to 0.1 µM,–,–
"Cn1cc2c3cc(C(=O)O)ccc3n(-c3ccc(C(F)(F)F)c(F)c3)c2n1 [Example C164, 8-[3-fluoro-4-(trifluoromethyl)phenyl]-2-methyl-2H,8H-pyrazolo[3,4-b]indole-5-carboxylic acid]",> 30 µM,0.01 to 0.1 µM,0.001 to 0.1 µM,–,–
"Cn1nc2c3cc(C(=O)N[C@](C)(CO)c4ccccn4)ccc3n(-c3ccc(C(F)(F)F)cc3)c2n1 (single isomer, unassigned) [Example C187]",–,0.01 to 0.1 µM,0.001 to 0.1 µM,–,"IC50 [1, 9]: 1 to 10 µM"
"Cn1cc2c3cc(C(=O)N[C@@H](CCO)c4cncs4)ccc3n(-c3ccc(C(F)(F)F)cc3)c2n1 (single isomer, unassigned) [Example C162]",–,0.01 to 0.1 µM,0.001 to 0.1 µM,> 30 µM,–
"Cn1cc2c3cc(C(=O)O)ccc3n(-c3ccc(C(F)(F)F)cn3)c2n1 [Example C126, 2-methyl-8-[5-(trifluoromethyl)pyridin-2-yl]-2H,8H-pyrazolo[3,4-b]indole-5-carboxylic acid]",–,0.01 to 0.1 µM,0.1 to 1 µM,> 3 µM,–
"Cn1cc2c3cc(C(=O)NCc4ccncc4)ccc3n(C3CC4(C3)CC(F)(F)C4)c2n1 [Example C208, 8-{6,6-difluorospiro[3.3]heptan-2-yl}-2-methyl-N-[(pyridin-4-yl)methyl]-2H,8H-pyrazolo [3,4-b]indole-5-carboxamide]",> 30 µM,0.01 to 0.1 µM,0.1 to 1 µM,–,–
"Cn1cc2c3cc(C(=O)NCc4ccncc4)ccc3n(-c3ccc(C(F)F)cc3)c2n1 [Example C209, 8-[4-(difluoromethyl)phenyl]-2-methyl-N-[(pyridin-4-yl)methyl]-2H,8H-pyrazolo[3,4-b]indole-5-carboxamide]",> 30 µM,0.01 to 0.1 µM,0.1 to 1 µM,–,–
"C[C@@H](NC(=O)c1ccc2c(c1)c1nn(C)nc1n2-c1ccc(C(F)(F)F)cc1)c1ccncc1 [Example C180, 2-methyl-N-[(1R)-1-(pyridin-4-yl)ethyl]-4-[4-(trifluoromethyl)phenyl]-2H,4H-[1,2,3]triazolo[4,5-b]indole-7-carboxamide]",> 30 µM,0.01 to 0.1 µM,0.001 to 0.1 µM,–,–
"Cc1snc2c1c1cc(C(=O)N[C@](C)(CO)c3ccccc3)ccc1n2-c1ccc(C(F)(F)F)cc1 [Example C80, N-[(2S)-1-hydroxy-2-phenylpropan-2-yl]-3-methyl-8-[4-(trifluoromethyl)phenyl]-8H-[1,2]thiazolo[3,4-b]indole-5-carboxamide]",–,0.01 to 0.1 µM,0.001 to 0.1 µM,> 30 µM,–
"Cn1cnc2c1c1cc(C3CC(Oc4cncnc4)=NO3)ccc1n2-c1ccc(C(F)(F)F)cc1 (stereo not drawn) [Example 40, 5-[(5-{1-methyl-4-[4-(trifluoromethyl)phenyl]-1H,4H-imidazo[4,5-b]indol-7-yl}-4,5-dihydro-1,2-oxazol-3-yl)oxy]pyrimidine]",–,–,> 10 µM,–,"IC50 [1, 9]: > 30 µM; IC50 [2, 10]: 0.01 to 0.1 µM"
